Reference: US20110245284A1, “Alkoxy- and Alkylthio-Substituted Anilinopyrimidines” (Bayer CropScience AG, priority 2008, published 2011)

Tested on: Leptosphaeria nodorum
Experiment: Leptosphaeria nodorum test (wheat) / protective
Format: in vivo
Conditions: Parastagonospora nodorum, active compound concentration 500 ppm, evaluation 7-9 days after inoculation, read-out: efficacy
Method: Thereafter, the plants are placed in a greenhouse at 90% relative atmospheric humidity and a temperature of 22° C.

Row | SMILES | pest or weed control at 500 ppm [%]
1 | CSC(C)c1cccc(Nc2ncc(C(F)(F)F)c(NC3CCCC3)n2)c1 (centres unmarked) [Example 16] | ≥ 70
2 | COC(C)c1cccc(Nc2ncc(C(F)(F)F)c(NC3CCCC3)n2)c1 (centres unmarked) [Example 17] | ≥ 70
3 | CCSC(C)c1cccc(Nc2ncc(C(F)(F)F)c(NC3CCCC3)n2)c1 (centres unmarked) [Example 37] | ≥ 70
4 | Clc1cnc(Nc2cccc(COc3ccccc3)c2)nc1NC1CC1 [Example 50] | ≥ 70
5 | COCCOc1ccc(Nc2ncc(Cl)c(NC3CC3)n2)cc1Cl [Example 68] | ≥ 70
6 | COCc1cccc(Nc2ncc(Cl)c(NCC(C)(C)C)n2)c1 [Example 142] | ≥ 70
7 | CCC(CC)Nc1nc(Nc2cccc(COC)c2)ncc1Cl [Example 144] | ≥ 70
8 | CCCS(=O)(=O)c1cccc(Nc2ncc(Br)c(NC3CCC3)n2)c1 [Example 159] | ≥ 70

Tested on: not listed separately
Experiment: logP by LC-MS on reversed-phase columns (C 18), method [b], acidic range pH 2.7
Format: physicochemical
Conditions: method [b], LC-MS, acidic range pH 2.7
Method: (§1) The logP values were determined in accordance with EEC Directive 79/831 Annex V.A8 by HPLC (High Performance Liquid Chromatography) on reversed-phase columns (C 18), using the methods below:
[b] The LC-MS determination in the acidic range is carried out at pH 2.7 using the mobile phases 0.1% aqueous formic acid and acetonitrile (contains 0.1% formic acid), linear gradient from 10% acetonitrile to 95% acetonitrile.

Row | SMILES | log p
9 | CCOCCOc1cc(Nc2ncc(Cl)c(NC3CC3)n2)ccc1C [Example 48] | 2.23[b]
10 | O=S(=O)(CCCl)c1cc(Nc2ncc(Cl)c(NC3CC3)n2)ccc1Cl [Example 49] | 2.67[b]
11 | COCc1cccc(Nc2ncc(Br)c(NC3CC3C)n2)c1 (centres unmarked) [Example 84] | 2.15[b]
12 | CCSC(C)c1cccc(Nc2ncc(Cl)c(NC3CC3CC)n2)c1 (centres unmarked) [Example 196] | 3.99[b]
13 | CCC1CC1Nc1nc(Nc2cccc(C(C)OC)c2)ncc1Cl (centres unmarked) [Example 197] | 2.76[b]
14 | COCc1cccc(Nc2ncc(Br)c(NC3CC(C)C3)n2)c1 (centres unmarked) [Example 200] | 2.55[b]
15 | COC(C)c1cccc(Nc2ncc(Br)c(NC3CC(C)C3)n2)c1 (centres unmarked) [Example 212] | 2.84[b]

Same assay, conditions: pH 2.7

Row | SMILES | log p
16 | COCCOCCOc1ccc(Nc2ncc(Br)c(NC3CC3)n2)cc1 [Example 2] | 1.69[b]
17 | C=C(C)CSc1cccc(Nc2ncc(Br)c(NC3CC3)n2)c1 [Example 3] | 4.25[b]
18 | COCC(C)Oc1ccc(Nc2ncc(Br)c(NC3CC3)n2)cc1Cl (centres unmarked) [Example 4] | 2.75[b]
19 | COC(c1cccc(Nc2ncc(Br)c(NC3CCC3)n2)c1)C(F)(F)F (centres unmarked) [Example 10] | 3[b]
20 | CCSC(C)c1cccc(Nc2ncc(Cl)c(NC3CCC3)n2)c1 (centres unmarked) [Example 11] | 3.25[b]
21 | COC(c1cccc(Nc2ncc(Cl)c(NC3CCC3)n2)c1)C(F)(F)F (centres unmarked) [Example 21] | 2.99[b]
22 | COC(c1cccc(Nc2ncc(Cl)c(NCC(F)F)n2)c1)C(F)(F)F (centres unmarked) [Example 23] | 2.93[b]
23 | CCSC(C)c1cccc(Nc2ncc(C(F)(F)F)c(NC3CCC3)n2)c1 (centres unmarked) [Example 36] | 4.75[b]
24 | C=C(C)CSc1cccc(Nc2ncc(Cl)c(NC3CC3)n2)c1 [Example 38] | 3.59[b]
25 | CCS(=O)(=O)C(C)c1cccc(Nc2ncc(C(F)(F)F)c(NC3CCCC3)n2)c1 (centres unmarked) [Example 39] | 3.27[b]
26 | CCS(=O)(=O)C(C)c1cccc(Nc2ncc(C(F)(F)F)c(NCC3CC3)n2)c1 (centres unmarked) [Example 41] | 2.65[b]
27 | CC[S+]([O-])C(C)c1cccc(Nc2ncc(C(F)(F)F)c(NC3CCCC3)n2)c1 (centres unmarked) [Example 42] | 2.87[b]
28 | CC[S+]([O-])C(C)c1cccc(Nc2ncc(C(F)(F)F)c(NCC3CC3)n2)c1 (centres unmarked) [Example 44] | 2.3[b]
29 | CCS(=O)(=O)C(C)c1cccc(Nc2ncc(C(F)(F)F)c(NC3CC3)n2)c1 (centres unmarked) [Example 46] | 2.49[b]
30 | COCc1cc(COC)cc(Nc2ncc(Cl)c(NC3CCC3)n2)c1 [Example 47] | 2.06[b]
31 | CCS(=O)(=O)c1ccc(Nc2ncc(C(F)(F)F)c(NC3CC3)n2)cc1 [Example 55] | 2.66[b]
32 | COCc1cccc(Nc2ncc(Cl)c(N(C)CCCN3CCCCCC3=O)n2)c1 [Example 69] | 1.91[b]
33 | COCC(C)Oc1ccc(Nc2ncc(Cl)c(NC3CC3)n2)cc1C(F)(F)F (centres unmarked) [Example 72] | 2.91[b]
34 | COCC(C)Oc1ccc(Nc2ncc(C(F)(F)F)c(NC3CC3)n2)cc1Cl (centres unmarked) [Example 78] | 3.7[b]
35 | COCC(C)Oc1ccc(Nc2ncc(C(F)(F)F)c(NC3CC3)n2)cc1C(F)(F)F (centres unmarked) [Example 80] | 4.05[b]
36 | COCCOc1ccc(Nc2ncc(C(F)(F)F)c(NC3CC3)n2)cc1F [Example 81] | 2.89[b]
37 | Fc1cccc(Nc2ncc(Cl)c(NC3CC3)n2)c1 [Example 86] | 1.87[b]

Row | SMILES | log p
38 | COCC(C)Oc1ccc(Nc2ncc(C(F)(F)F)c(NC3CC3)n2)cc1 (centres unmarked) [Example 88] | 2.71[b]
39 | COCc1cccc(Nc2ncc(Cl)c(N3CCCCC3)n2)c1 [Example 89] | 3.14[b]
40 | CCCN(c1nc(Nc2cccc(COC)c2)ncc1Cl)C1CC1 [Example 136] | 3.68[b]
41 | COCc1cccc(Nc2ncc(Cl)c(N3CCCCCC3)n2)c1 [Example 139] | 2.88[b]
42 | CCS(=O)(=O)C(C)c1cccc(Nc2ncc(Br)c(NC3CCC3)n2)c1 (centres unmarked) [Example 153] | 2.03[b]
43 | COCCOCCOc1ccc(Nc2ncc(C(F)(F)F)c(NC3CC3)n2)cc1Cl [Example 156] | 3.2[b]
44 | CCCC(C)S(=O)(=O)C(C)c1cccc(Nc2ncc(C(F)(F)F)c(NC3CC3)n2)c1 (centres unmarked) [Example 168] | 3.47[b]
45 | COCCOCCOc1ccc(Nc2ncc(Cl)c(NC3CC3)n2)cc1Cl [Example 173] | 2.12[b]
46 | COCc1cccc(Nc2ncc(Cl)c(NC3CC3C(F)(F)F)n2)c1 (centres unmarked) [Example 208] | 2.64[b]
47 | COCCOc1cccc(Nc2ncc(Cl)c(NC3CC3C(F)(F)F)n2)c1 (centres unmarked) [Example 210] | 2.66[b]
48 | COCC(C)Oc1ccc(Nc2ncc(Br)c(NC3CC(C)C3)n2)cc1 (centres unmarked) [Example 213] | 2.27[b]
49 | CCSC(C)c1cccc(Nc2ncc(Br)c(NC3CC(C)C3)n2)c1 (centres unmarked) [Example 214] | 3.85[b]
50 | COCC(C)Oc1ccc(Nc2ncc(Cl)c(NC3CC3C(F)(F)F)n2)cc1 (centres unmarked) [Example 221] | 2.48[b]
51 | CS(=O)(=O)Cc1cccc(Nc2ncc(Cl)c(NC3CC3C(F)(F)F)n2)c1 (centres unmarked) [Example 222] | 1.96[b]
52 | CCSC(C)c1cccc(Nc2ncc(Cl)c(NC3CC3C(F)(F)F)n2)c1 (centres unmarked) [Example 223] | 3.93[b]
53 | FC(F)(F)COCc1cccc(Nc2ncc(Cl)c(NC3CC3)n2)c1 [Example 224] | 2.56[b]
54 | FC(F)(F)c1cnc(Nc2cccc(COc3ccc4c(c3)OCO4)c2)nc1NC1CC1 [Example 227] | 3.9[b]
55 | FC(F)C(F)(F)COCc1cccc(Nc2ncc(C(F)(F)F)c(NC3CC3)n2)c1 [Example 231] | 3.7[b]
56 | FC(F)C(F)(F)COCc1cccc(Nc2ncc(Cl)c(NC3CC3)n2)c1 [Example 232] | 2.69[b]
57 | CCOCCOCc1cccc(Nc2ncc(Cl)c(NC3CC3)n2)c1 [Example 252] | 2.51[b]
58 | CCOCCOCc1cccc(Nc2ncc(C(F)(F)F)c(NC3CC3)n2)c1 [Example 253] | 2.73[b]

Same assay, conditions: pH 2.7, log p

Row | SMILES | chromatographic logP
59 | CSC(C)c1cccc(Nc2ncc(C(F)(F)F)c(NC3CCCC3)n2)c1 (centres unmarked) [Example 16] | 4.48
60 | COC(C)c1cccc(Nc2ncc(C(F)(F)F)c(NC3CCCC3)n2)c1 (centres unmarked) [Example 17] | 4.13
61 | CCSC(C)c1cccc(Nc2ncc(C(F)(F)F)c(NC3CCCC3)n2)c1 (centres unmarked) [Example 37] | 5.2
62 | Clc1cnc(Nc2cccc(COc3ccccc3)c2)nc1NC1CC1 [Example 50] | 2.92
63 | CCS(=O)(=O)c1ccc(Nc2ncc(Cl)c(NC3CC3)n2)cc1 [Example 54] | 2.04
64 | COCCOc1ccc(Nc2ncc(Cl)c(NC3CC3)n2)cc1Cl [Example 68] | 2.12
65 | CCN(c1nc(Nc2cccc(COC)c2)ncc1Cl)C(C)C [Example 140] | 3
66 | CCCN(C)c1nc(Nc2cccc(COC)c2)ncc1Cl [Example 141] | 2.55
67 | COCc1cccc(Nc2ncc(Cl)c(NCC(C)(C)C)n2)c1 [Example 142] | 2.48
68 | CCCC(C)Nc1nc(Nc2cccc(COC)c2)ncc1Cl (centres unmarked) [Example 143] | 2.41
69 | CCC(CC)Nc1nc(Nc2cccc(COC)c2)ncc1Cl [Example 144] | 2.3
70 | CCC(C)CNc1nc(Nc2cccc(COC)c2)ncc1Cl (centres unmarked) [Example 145] | 2.37
71 | COCc1cccc(Nc2ncc(Cl)c(NCCC(C)C)n2)c1 [Example 146] | 2.37
72 | CCCCCNc1nc(Nc2cccc(COC)c2)ncc1Cl [Example 147] | 2.41
73 | COCCOc1ccc(Nc2ncc(C(F)(F)F)c(NC3CC3)n2)cc1C [Example 157] | 2.14
74 | CCCS(=O)(=O)c1cccc(Nc2ncc(Br)c(NC3CCC3)n2)c1 [Example 159] | 2.81
75 | COCCOc1ccc(Nc2ncc(Cl)c(NC3CC3)n2)cc1C [Example 174] | 1.43
76 | CCOCCOc1ccc(Nc2ncc(C(F)(F)F)c(NC3CC3)n2)cc1Cl [Example 184] | 3.72
77 | CCOCCOc1ccc(Nc2ncc(C(F)(F)F)c(NC3CC3)n2)cc1C(F)(F)F [Example 186] | 4.09
78 | FC(F)(F)OCCOc1cccc(Nc2ncc(Cl)c(NC3CC3)n2)c1 [Example 241] | 2.72
79 | CCOCCOCc1cccc(Nc2ncc(Cl)c(NC3CC3)n2)c1 [Example 248] | 2.03
80 | CCOCCOCc1cccc(Nc2ncc(C(F)(F)F)c(NC3CC3)n2)c1 [Example 250] | 3.17

Tested on: not listed separately
Experiment: logP by LC-MS on reversed-phase columns (C 18), method [c], neutral range pH 7.8
Format: physicochemical
Conditions: method [c], LC-MS, neutral range pH 7.8
Method: as §1
[c] The LC-MS determination in the neutral range is carried out at pH 7.8 using the mobile phases 0.001 molar aqueous ammonium bicarbonate solution and acetonitrile, linear gradient from 10% acetonitrile to 95% acetonitrile.

Row | SMILES | log p
81 | COCc1cccc(Nc2ncc(Br)c(NC3CC3C)n2)c1 (centres unmarked) [Example 84] | 3.59[c];

Same assay, conditions: pH 7.8

Row | SMILES | log p | chromatographic logP
82 | COCC(C)Oc1ccc(Nc2ncc(C(F)(F)F)c(NC3CC3)n2)cc1Cl (centres unmarked) [Example 78] | 3.99[c]; | –
83 | COCC(C)Oc1ccc(Nc2ncc(C(F)(F)F)c(NC3CC3)n2)cc1C(F)(F)F (centres unmarked) [Example 80] | 4.28[c]; | –
84 | COCCOc1ccc(Nc2ncc(C(F)(F)F)c(NC3CC3)n2)cc1F [Example 81] | 3.27[c]; | –
85 | COCc1cccc(Nc2ncc(Cl)c(N3CCCC3)n2)c1 [Example 87] | 3.83[c]; | –
86 | COCC(C)Oc1ccc(Nc2ncc(C(F)(F)F)c(NC3CC3)n2)cc1 (centres unmarked) [Example 88] | 3.45[c]; | –
87 | COCc1cccc(Nc2ncc(Cl)c(N3CCCCC3)n2)c1 [Example 89] | 4.2[c]; | –
88 | COCCOC(c1cccc(Nc2ncc(C(F)(F)F)c(NCC3CC3)n2)c1)C(F)(F)F (centres unmarked) [Example 220] | 4.2[c] | –
89 | Clc1cnc(Nc2cccc(COc3ccc4c(c3)OCO4)c2)nc1NC1CC1 [Example 230] | 3.87[c] | –
90 | CCOC(CSc1cccc(Nc2ncc(C(F)(F)F)c(NC3CC3)n2)c1)OCC [Example 236] | 4.55[c] | –
91 | COC(COCc1cccc(Nc2ncc(C(F)(F)F)c(NC3CC3)n2)c1)OC [Example 237] | 3.37[c] | –
92 | CCOC(COCc1cccc(Nc2ncc(C(F)(F)F)c(NC3CC3)n2)c1)OCC [Example 238] | – | 4.09
